Laboratory results published in a compilation of properties of binary mixtures (doi:10.1016/j.jct.2023.107038).

Assay: xn = mol fraction of the nth substance listed
Conditions: 96.7 kPa

OCC(F)(F)F + CC(=O)[O-].CC[n+]1ccn(C)c1
viscosity [mPa·s]
Conditions | 293.15 K | 298.15 K | 303.15 K | 308.15 K | 313.15 K | 318.15 K | 323.15 K | 328.15 K | 333.15 K
x1 = 0.048 | 157 | – | – | 67 | 53 | 42.2 | 34.3 | 28.4 | 23.7
x1 = 0.103 | 138 | 104 | 79 | 61 | 48.5 | 39.2 | 31.6 | 26.5 | –
x1 = 0.204 | – | 75 | 59 | – | 37.7 | 30.6 | 25.6 | 21.4 | 18.2
x1 = 0.298 | 69 | 54 | 42.9 | 34.7 | 28.5 | 23.7 | 20 | – | 14.5
x1 = 0.402 | 46.1 | – | – | 24.2 | 21.1 | 17.6 | – | 12.9 | 11.3
x1 = 0.603 | – | 14.6 | 12.4 | 11 | 9.5 | – | 7.4 | 6.5 | –
x1 = 0.801 | 6.2 | 5.5 | 4.85 | 4.32 | – | 3.54 | – | 2.94 | 2.69
x1 = 1 | 2.01 | 1.8 | 1.59 | 1.41 | – | 1.1 | 1.01 | 0.93 | –

OCC(F)(F)F + CC[n+]1ccn(C)c1.O=S(=O)([N-]S(=O)(=O)C(F)(F)F)C(F)(F)F
viscosity [mPa·s]
Conditions | 293.15 K | 298.15 K | 303.15 K | 308.15 K | 313.15 K | 318.15 K | 323.15 K | 328.15 K | 333.15 K
x1 = 0.051 | – | 30.2 | 25.7 | 22 | – | 16.5 | 14.5 | 12.7 | 11.4
x1 = 0.099 | 32.5 | 27.4 | 23.4 | 20 | 17.6 | 15.2 | – | 11.8 | 10.7
x1 = 0.204 | 25.7 | 23.1 | 19.6 | – | 14.3 | 13.1 | 11.5 | 10.1 | 9.3
x1 = 0.303 | – | 17.7 | 15.3 | 13.5 | 11.8 | 10.3 | 9.4 | 8.4 | 7.6
x1 = 0.396 | – | 13.5 | 11.7 | 10.3 | – | 8.2 | 7.3 | 6.8 | –
x1 = 0.599 | 8.3 | 7.3 | – | 5.8 | 5.2 | – | 4.3 | 3.92 | 3.59
x1 = 0.799 | – | 3.53 | 3.16 | 2.96 | 2.68 | 2.47 | 2.27 | – | 1.95
x1 = 1 | 2.01 | 1.8 | 1.59 | – | 1.26 | 1.1 | 1.01 | 0.93 | –

CC(=O)[O-].CC[n+]1ccn(C)c1 + OCC(F)(F)F
x2 = 0
Conditions | viscosity [mPa·s]
293.15 K | 181
298.15 K | 135
303.15 K | 100
308.15 K | 76
323.15 K | 38.5
328.15 K | 31.4
333.15 K | 26

CC[n+]1ccn(C)c1.O=S(=O)([N-]S(=O)(=O)C(F)(F)F)C(F)(F)F + OCC(F)(F)F
x2 = 0
Conditions | viscosity [mPa·s]
293.15 K | 39.2
298.15 K | 32.9
303.15 K | 27.8
318.15 K | 17.6
323.15 K | 15.4
328.15 K | 13.6
333.15 K | 12.2
